The results in this text go back to patent publication EP4509142A1, “FGFR4 AS TARGET IN CANCER TREATMENT” (Ona Therapeutics S.L., priority 2023, dated 2025).

What all share (assay): Dose-response to palbociclib, CyQUANT NF cell proliferation after 4 days
Assay type in all cases: cell-based

The test system of test [1] is MCF7-PR. The procedure: (§1) The inventors next generated experimental cell lines models with acquired resistance to palbociclib derived from commercially available breast cancer cell lines MCF7 and T47D (ATCC), which were cultured according to supplier's recommendation. An MCF7-derived palbociclib-resistant (MCF7-PR) and a T47D-derived palbociclib-resistant (T47D-PR) cell lines were established by treating MCF7 and T47D with palbociclib for 6 months, starting at low concentration (1 nM) and increasing them at each passage until reaching 1 µM). MCF7-PR and T47D-PR cells were maintained in complete medium with 500 nM of palbociclib. The IC50 of sensitive MCF7 and T47D as well as derived palbociclib-resistant MCF7-PR and T47D-PR cell lines was evaluated by seeding 5000 tumor cells per well in 96-well plates and adding the following day increasing doses of Palbociclib. Proliferation was assessed after 4 days with CyQUANT NF Cell Proliferation (ThermoFisher Scientific) according to manufacturer's instructions. Fluorescence measurements were taken using FL800 Fluorescence plate reader with excitation at 485 nm and emission detection at 520 nm. Surviving fraction was calculated relative to untreated control cells using the formula: % Cell viability = (treated/untreated)*100 and IC^50 values were calculated with a non-linear regression model using GraphPad PRISM software.
(§2) Next, FGFR4-depletion was induced by means of stable shRNA expression and confirmed by Western blotting using standard procedures. Specifically, sensitive MCF7 and resistant MCFR7-PR and ZR751 were infected with two independent stable FGFR4 shRNAs (shFGFR4#1 and shFGFR4#2) and, as a control, a non-targeting scramble shRNA (shControl) (Fig.2C-2D). Response to palbociclib was evaluated by incubating the cells with increasing concentrations of palbociclib as described above.

Test [2] deals with T47D. The settings on record: Homo sapiens; parental sensitive T47D. As to the method:
as §1

For test [3], the system named is MCF7. The settings on record: Homo sapiens; parental sensitive MCF7. As to the method:
as §1

Test [4] has as its system T47D-PR. The settings on record: palbociclib-resistant T47D-PR. The procedure:
as §1

For test [5], the system named is ZR751. The settings on record: Homo sapiens, ZR-75-1. As to the method: as §1, §2
In order to validate FGFR4 as a driver of CDK4/6i resistance, the inventors developed ZR751 cells that overexpressed wild-type FGFR4 (FGFR4wt) or constitutively active FGFR4 (FGFR4 Y367C) (Roidl et al., 2010). Control cells were infected with the backbone vector expressing red fluorescent protein (RFP).

Where two headings read alike, the source gives them in different places.

The term IC50 denotes the point on the concentration scale where inhibition reaches its midpoint. `CC(=O)c1c(C)c2cnc(Nc3ccc(N4CCNCC4)cn3)nc2n(C2CCCC2)c1=O` [palbociclib]: the concentration for half-maximal inhibition (IC50) in test [1] (FGFR4 knockdown shFGFR4#1, read-out: IC50 MCF7-PR shFGFR4#1) came to 0.576 µM; in test [1] (FGFR4 knockdown shFGFR4#2, read-out: IC50 MCF7-PR shFGFR4#2) it was 0.449 µM; in test [1] (non-targeting scramble shRNA, read-out: IC50 MCF7-PR shControl) it was 1.55 µM; in test [1] (palbociclib-resistant MCF7-PR, read-out: IC50 MCF7-PR) it was 2 µM; in test [2], 0.05 µM; in test [3] it was 0.25 µM. For the same compound, the IC50 in test [4] is 1.8 µM; in test [5] (FGFR4 knockdown shFGFR4#1, read-out: IC50 ZR751 shFGFR4#1), 0.0802 µM; in test [5] (FGFR4 knockdown shFGFR4#2, read-out: IC50 ZR751 shFGFR4#2) it was 0.125 µM; in test [5] (control cells with backbone vector expressing RFP, read-out: IC50 ZR751 RFP), 0.354 µM; in test [5] (non-targeting scramble shRNA, read-out: IC50 ZR751 shControl), 3.8 µM; in test [5] (overexpressing wild-type FGFR4, read-out: IC50 ZR751 FGFR4wt) it was approximately 4200 µM.
